Experimental data from patent US20240287052A1, “NOVEL OXAZOLE DERIVATIVE AND PHARMACEUTICAL COMPOSITION FOR PREVENTING OR TREATING ALLERGIC DISEASES COMPRISING THE SAME” (AZCURIS CO., LTD., priority 2021, published 2024).
Where two headings read alike, the source gives them in different places.

Biological target: T1, IL33 and ST2 binding (Homo sapiens, UniProt O95760)
T1 sequence (O95760 112-270 limits assumed): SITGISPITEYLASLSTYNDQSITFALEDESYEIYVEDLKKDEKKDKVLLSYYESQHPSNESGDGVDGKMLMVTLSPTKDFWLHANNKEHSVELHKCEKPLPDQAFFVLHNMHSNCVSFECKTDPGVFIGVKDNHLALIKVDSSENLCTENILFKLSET
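Also: plate ELISA with coated Flag-tagged human IL-33 and His-tagged human ST2, bound ST2 detected by anti-His HRP and TMB absorbance at 450 nm, 2 h compound incubation.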

Procedure: 100 nM of Flag tagged IL-33 human recombinant protein was prepared in 1× coating buffer (Biolegend) and placed in a 96 well microplate (Coming) using a Multichannel pipette (Gilson) and coated for at least 12 hours at 4° C.
After washing three times with PBST (1×PBS (Welgene), 1% Tween 20 (sigma)), it was reacted with 1% BSA (Bovogen) blocking buffer for 1 hour at room temperature.
Samples containing 200 nM of His-tagged ST2 human recombinant protein and 60 μM or 200 μM Example synthetic compounds were prepared, added in equal volumes, and reacted for at least 2 hours at room temperature.
After washing three times with PBST (1×PBS (Welgene), 1% Tween 20 (sigma)), anti-His HRP (BioLegend) antibody was diluted 5000:1 and reacted for at least 1 hour at room temperature.
After washing three times with PBST (1×PBS (Welgene), 1% Tween 20 (sigma)), TMB substrate solution (Thermo) was added and reacted for more than 5 minutes. The reaction was stopped by adding 1 N HCl (Samchun) and the absorbance value was obtained at 450 nm after orbital shaking for 5 s with a Microplate reader (Tecan, Spark®).
The results derived from the program linked to the microplate reader were analyzed using an Excel program. IL33-ST2 binding rate (binding %) was calculated by averaging the three values obtained in triplicate, subtracting the positive control value, and converting the negative control value to 100%. The inhibition % value of each compound was obtained by subtracting the IL33-ST2 binding % from 100%, and the error range of triplicate was also obtained and reflected in the inhibition graph of the compound.

Compound	inhibition (30 µM) [%]	inhibition (100 µM) [%]
O=C(NCCc1ccc(F)cc1)c1nc(-c2ccc(C(F)(F)F)cc2)oc1-c1ccccc1[N+](=O)[O-] [Compound 149, N-(4-Fluorophenethyl)-5-(2-nitrophenyl)-2-(4-(trifluoromethyl)phenyl)oxazole-4-carboxamide]	20	19
CN(C)CCCN1CCN(C(=O)c2nc(-c3ccc(C(F)(F)F)cc3)oc2-c2ccccc2[N+](=O)[O-])CC1 [Compound 150, (4-(3-(Dimethylamino)propyl)piperazin-1-yl)(5-(2-nitrophenyl)-2-(4-(trifluoromethyl)phenyl)oxazol-4-yl)methanone]	-18	7
O=C(c1nc(-c2ccc(C(F)(F)F)cc2)oc1-c1ccccc1[N+](=O)[O-])N1CCN(CCN2CCCCC2)CC1 [Compound 151, (5-(2-Nitrophenyl)-2-(4-(trifluoromethyl)phenyl)oxazol-4-yl)(4-(2-(piperidin-1-yl)ethyl)piperazin-1-yl)methanone]	-33	-16
CCN(CC)CCN1CCN(C(=O)c2nc(-c3ccc(C(F)(F)F)cc3)oc2-c2ccccc2[N+](=O)[O-])CC1 [Compound 154, (4-(2-(Diethylamino)ethyl)piperazin-1-yl)(5-(2-nitrophenyl)-2-(4-(trifluoromethyl)phenyl)oxazol-4-yl)methanone]	0	-25
O=C(c1nc(-c2ccc(C(F)(F)F)cc2)oc1-c1ccccc1[N+](=O)[O-])N1CCOCC1 [Compound 156, Morpholino(5-(2-nitrophenyl)-2-(4-(trifluoromethyl)phenyl)oxazol-4-yl)methanone]	-1	41
COCCNC(=O)c1nc(-c2ccc(C(F)(F)F)cc2)oc1-c1ccccc1[N+](=O)[O-] [Compound 160, N-(2-Methoxyethyl)-5-(2-nitrophenyl)-2-(4-(trifluoromethyl)phenyl)oxazole-4-carboxamide]	18	29
O=C(c1ccc(N2CCCCC2)cc1)c1nc(-c2ccc(C(F)(F)F)cc2)oc1-c1ccccc1[N+](=O)[O-] [Compound 162, (5-(2-Nitrophenyl)-2-(4-(trifluoromethyl)phenyl)oxazol-4-yl)(4-(piperidin-1-yl)phenyl)methanone]	3	5
CC(C)N(CCN1CCN(C(=O)c2nc(-c3ccc(C(F)(F)F)cc3)oc2-c2ccccc2[N+](=O)[O-])CC1)C(C)C [Compound 167, (4-(2-(Diisopropylamino)ethyl)piperazin-1-yl)(5-(2-nitrophenyl)-2-(4-(trifluoromethyl)phenyl)oxazol-4-yl)methanone]	-24	-9
CC(C)N1CCN(C(=O)c2nc(-c3ccc(C(F)(F)F)cc3)oc2-c2ccccc2[N+](=O)[O-])CC1 [Compound 168, (4-Isopropylpiperazin-1-yl)(5-(2-nitrophenyl)-2-(4-(trifluoromethyl)phenyl)oxazol-4-yl)methanone]	12	-12
O=C(c1nc(-c2ccc(C(F)(F)F)cc2)oc1-c1ccccc1[N+](=O)[O-])N1CCN(CCN2CCCC2)CC1 [Compound 170, (5-(2-Nitrophenyl)-2-(4-(trifluoromethyl)phenyl)oxazol-4-yl)(4-(2-(pyrrolidin-1-yl)ethyl)piperazin-1-yl)methanone]	3	2
CC(C)(C)OC(=O)N1CCN(CCNC(=O)c2nc(-c3ccc(C(F)(F)F)cc3)oc2-c2ccccc2[N+](=O)[O-])CC1 [Compound 172, tert-Butyl-4-(2-(5-(2-nitrophenyl)-2-(4-(trifluoromethyl)phenyl)oxazole-4-carboxamido)ethyl)piperazine-1-carboxylate]	51	50
CC(=O)Nc1ccc(NC(=O)c2nc(-c3ccc(C(F)(F)F)cc3)oc2-c2ccccc2[N+](=O)[O-])cc1 [Compound 175, N-(4-Acetamidophenyl)-5-(2-nitrophenyl)-2-(4-(trifluoromethyl)phenyl)oxazole-4-carboxamide]	27	53
CN(C)CCNC(=O)c1nc(-c2cccc(OC(F)(F)F)c2)oc1-c1ccccc1 [Compound 199, N-(2-(Dimethylamino)ethyl)-5-phenyl-2-(3-(trifluoromethoxy)phenyl)oxazole-4-carboxamide]	7	2
CN(C)CCNC(=O)c1nc(-c2cccc(OC(F)(F)F)c2)oc1-c1ccccc1[N+](=O)[O-] [Compound 201, N-(2-(Dimethylamino)ethyl)-5-(2-nitrophenyl)-2-(3-(trifluoromethoxy)phenyl)oxazole-4-carboxamide]	-7	-5
CN1CCN(CCNC(=O)c2nc(-c3ccc(OC(F)(F)F)cc3)oc2-c2ccccc2)CC1 [Compound 204, N-(2-(4-Methylpiperazin-1-yl)ethyl)-5-phenyl-2-(4-(trifluoromethoxy)phenyl)oxazole-4-carboxamide]	1	36
CN(C)CCNC(=O)c1nc(-c2ccc(OC(F)(F)F)cc2)oc1-c1ccccc1[N+](=O)[O-] [Compound 205, N-(2-(Dimethylamino)ethyl)-5-(2-nitrophenyl)-2-(4-(trifluoromethoxy)phenyl)oxazole-4-carboxamide]	-11	4

Other lines, results leading:

inhibition (30 µM) [%]	inhibition (100 µM) [%]	Compound
36	48	O=C(c1nc(-c2ccc(C(F)(F)F)cc2)oc1-c1ccccc1[N+](=O)[O-])N1CCN(CCN2CCOCC2)CC1 [Compound 152, (4-(2-Morpholinoethyl)piperazin-1-yl)(5-(2-nitrophenyl)-2-(4-(trifluoromethyl)phenyl)oxazol-4-yl)methanone]
-31	-18	CN1CCN(C(=O)c2nc(-c3ccc(C(F)(F)F)cc3)oc2-c2ccccc2[N+](=O)[O-])CC1 [Compound 155, (4-Methylpiperazin-1-yl)(5-(2-nitrophenyl)-2-(4-(trifluoromethyl)phenyl)oxazol-4-yl)methanone]
22	15	O=C(NCCCN1CCOCC1)c1nc(-c2ccc(C(F)(F)F)cc2)oc1-c1ccccc1[N+](=O)[O-] [Compound 157, N-(3-Morpholinopropyl)-5-(2-nitrophenyl)-2-(4-(trifluoromethyl)phenyl)oxazole-4-carboxamide]
2	-1	O=C(NCC1CCCO1)c1nc(-c2ccc(C(F)(F)F)cc2)oc1-c1ccccc1[N+](=O)[O-] (stereo not drawn) [Compound 159, 5-(2-Nitrophenyl)-N-((tetrahydrofuran-2-yl)methyl)-2-(4-(trifluoromethyl)phenyl)oxazole-4-carboxamide]
-16	-11	O=C(c1nc(-c2ccc(C(F)(F)F)cc2)oc1-c1ccccc1[N+](=O)[O-])N1CCC(O)CC1 [Compound 161, (4-Hydroxypiperidin-1-yl)(5-(2-nitrophenyl)-2-(4-(trifluoromethyl)phenyl)oxazol-4-yl)methanone]
-30	-19	CCOC(=O)N1CCN(C(=O)c2nc(-c3ccc(C(F)(F)F)cc3)oc2-c2ccccc2[N+](=O)[O-])CC1 [Compound 163, Ethyl 4-(5-(2-nitrophenyl)-2-(4-(trifluoromethyl)phenyl)oxazole-4-carbonyl)piperazine-1-carboxylate]
9	4	O=C(NCc1ccccc1)c1nc(-c2ccc(C(F)(F)F)cc2)oc1-c1ccccc1[N+](=O)[O-] [Compound 164, N-Benzyl-5-(2-nitrophenyl)-2-(4-(trifluoromethyl)phenyl)oxazole-4-carboxamide]
10	13	O=C(Nc1ccc(OCc2ccccc2)cc1)c1nc(-c2ccc(C(F)(F)F)cc2)oc1-c1ccccc1[N+](=O)[O-] [Compound 165, N-(4-(Benzyloxy)phenyl)-5-(2-nitrophenyl)-2-(4-(trifluoromethyl)phenyl)oxazole-4-carboxamide]
14	5	COc1ccc(CNC(=O)c2nc(-c3ccc(C(F)(F)F)cc3)oc2-c2ccccc2[N+](=O)[O-])cc1 [Compound 166, N-(4-Methoxybenzyl)-5-(2-nitrophenyl)-2-(4-(trifluoromethyl)phenyl)oxazole-4-carboxamide]
-4	7	O=C(c1nc(-c2ccc(C(F)(F)F)cc2)oc1-c1ccccc1[N+](=O)[O-])N1CCN(CCO)CC1 [Compound 169, (4-(2-Hydroxyethyl)piperazin-1-yl)(5-(2-nitrophenyl)-2-(4-(trifluoromethyl)phenyl)oxazol-4-yl)methanone]
54	60	O=C(NCCN1CCCCC1)c1nc(-c2ccc(C(F)(F)F)cc2)oc1-c1ccccc1[N+](=O)[O-] [Compound 173, 5-(2-Nitrophenyl)-N-(2-(piperidin-1-yl)ethyl)-2-(4-(trifluoromethyl)phenyl)oxazole-4-carboxamide]
27	36	O=C(NCCc1ccc(O)cc1)c1nc(-c2ccc(C(F)(F)F)cc2)oc1-c1ccccc1[N+](=O)[O-] [Compound 176, N-(4-Hydroxyphenethyl)-5-(2-nitrophenyl)-2-(4-(trifluoromethyl)phenyl)oxazole-4-carboxamide]
5	0	CN1CCN(CCNC(=O)c2nc(-c3cccc(OC(F)(F)F)c3)oc2-c2ccccc2)CC1 [Compound 200, N-(2-(4-Methylpiperazin-1-yl)ethyl)-5-phenyl-2-(3-(trifluoromethoxy)phenyl)oxazole-4-carboxamide]
7	32	CN1CCN(CCNC(=O)c2nc(-c3cccc(OC(F)(F)F)c3)oc2-c2ccccc2[N+](=O)[O-])CC1 [Compound 202, N-(2-(4-Methylpiperazin-1-yl)ethyl)-5-(2-nitrophenyl)-2-(3-(trifluoromethoxy)phenyl)oxazole-4-carboxamide]
